In PubChem BioAssay (NCI):
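Where inhibition never reached the appropriate level, the endpoint shown equals the highest concentration tested. Otherwise, values were interpolated linearly from a five-concentration, 48-hour dose response in 96-well plates. Here, GI50 denotes the concentration required for 50% inhibition of growth. Definition used: TGI = concentration required for complete inhibition of growth.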

Tests used:
Experiment in all cases: NCI tumour cell line growth inhibition, 48 h
SR leukemia = test system: SR leukemia
NCI-H226 lung = test system: NCI-H226 lung
MDA-MB-231 breast = test system: MDA-MB-231 breast
SK-MEL-5 melanoma = test system: SK-MEL-5 melanoma
HCT-15 colon = test system: HCT-15 colon
IGROV1 ovarian = test system: IGROV1 ovarian
DU-145 prostate = test system: DU-145 prostate
HOP-62 NSCLC = test system: HOP-62 NSCLC
COLO 205 colon = test system: COLO 205 colon
NCI-H522 lung = test system: NCI-H522 lung

Compound | GI50 (SR leukemia) | TGI (SR leukemia) | GI50 (NCI-H226 lung) | TGI (NCI-H226 lung) | GI50 (MDA-MB-231 breast) | TGI (MDA-MB-231 breast) | GI50 (SK-MEL-5 melanoma) | TGI (SK-MEL-5 melanoma) | GI50 (HCT-15 colon) | TGI (HCT-15 colon) | GI50 (IGROV1 ovarian) | TGI (IGROV1 ovarian) | GI50 (DU-145 prostate) | TGI (DU-145 prostate) | GI50 (HOP-62 NSCLC) | TGI (HOP-62 NSCLC) | GI50 (COLO 205 colon) | TGI (COLO 205 colon) | GI50 (NCI-H522 lung) | TGI (NCI-H522 lung)
OC(COc1cccc2ccccc12)CN1CCN(c2ccccc2Cl)CC1 (stereo unspecified) | 13.5 µM | 40.4 µM | 15 µM | 31.6 µM | 10.8 µM | 25.5 µM | 15.2 µM | 28.9 µM | 12.8 µM | 28.6 µM | 10 µM | 25.5 µM | 14.6 µM | 28.5 µM | 13.7 µM | 27.3 µM | 11.9 µM | 25 µM | 10.6 µM | 25.1 µM
COc1ccc2c(c1)CC[C@@H]1[C@@H]2CC[C@]2(C)C=C(/C=C/C(=O)c3ccccc3)C[C@@H]12 | 16.6 µM | 47.4 µM | 17.1 µM | 33.6 µM | 17.2 µM | 32.1 µM | 14 µM | 27.2 µM | 17.4 µM | 34.3 µM | 13.3 µM | 27.4 µM | 14.6 µM | 28.4 µM | 16.9 µM | 31.2 µM | 19.7 µM | 40.4 µM | 16 µM | 32.7 µM
CC1(C)[C@@H](OC(N)=O)C=C[C@]2(C=O)[C@H]3CC[C@]4(C)[C@@H](c5ccc(=O)oc5)[C@@H](Cl)C[C@]4(O)C3=CC[C@@H]12 | 0.00566 µM | 0.0154 µM | 0.00433 µM | 0.00829 µM | 0.00899 µM | 0.0492 µM | 0.00458 µM | 0.00903 µM | 0.00555 µM | 0.0129 µM | 0.00761 µM | 0.0244 µM | 0.0041 µM | 0.00785 µM | 0.00331 µM | 0.00699 µM | 0.00685 µM | 0.0178 µM | < 0.0025 µM | 0.00573 µM
Cc1c(C(=O)O[C@H]2[C@@H]3[C@H](C)CC[C@H]3[C@]3(C)O[C@@]2(C2CCCCC2)C[C@H]3OC(=O)CO)ccc2ccccc12 | 7.36 µM | 18.3 µM | 7.67 µM | 15.1 µM | 8 µM | 16.7 µM | 7.28 µM | 13.8 µM | 7.86 µM | 15.2 µM | 8.39 µM | 17.3 µM | 7.77 µM | 14.6 µM | 8.48 µM | 15.3 µM | 9.2 µM | 17.5 µM | 7.11 µM | 13.8 µM
CCCn1c(N)c(C(=O)CNc2ccc(I)cc2)c(=O)[nH]c1=O | 0.378 µM | 28.3 µM | 12.9 µM | > 100 µM | 24.5 µM | > 100 µM | 0.861 µM | > 100 µM | 0.264 µM | > 100 µM | 18 µM | > 100 µM | 7.12 µM | > 100 µM | 9.98 µM | > 100 µM |  | > 100 µM | 16 µM | > 100 µM
CCOc1cc(C(C)(C)C)ccc1C1=N[C@@](C)(c2ccc(Cl)cc2)[C@@](C)(c2ccc(Cl)cc2)N1C(=O)N1CCN(CCS(C)(=O)=O)CC1 | 0.198 µM | 5.26 µM | 0.5 µM | 2.13 µM | 2.31 µM | 7.61 µM | 1.38 µM | 2.73 µM | 2.27 µM | 5.79 µM | 1.49 µM | 6.54 µM | 4.85 µM | 16.1 µM | 2.86 µM | 8.57 µM | 2.03 µM | 4.01 µM | 2.98 µM | 10.2 µM
C1CC[N-]CC1.CC(=N\O)/C(C)=N/O.CC(=N\O)/C(C)=N/O.[CH2-]CCN1CCOCC1.[Co+2] | 6.1 µM | > 100 µM | > 100 µM | > 100 µM | > 100 µM | > 100 µM | > 100 µM | > 100 µM | > 100 µM | > 100 µM | > 100 µM | > 100 µM | > 100 µM | > 100 µM | > 100 µM | > 100 µM | > 100 µM | > 100 µM | > 100 µM | > 100 µM
COc1c(N2CCN(Cn3c(O)c(N=NC(=O)c4ccncc4)c4cc(F)ccc43)C(C)C2)c(F)cc2c(=O)c(C(=O)O)cn(C3CC3)c12 (stereo unspecified) | 16.3 µM | > 50 µM | 25.4 µM | > 50 µM | 8.31 µM | 27.7 µM | 16.6 µM | > 50 µM | 17 µM | > 50 µM | 42.1 µM | > 50 µM | 10 µM | 32.8 µM | 21.7 µM | > 50 µM | > 50 µM | > 50 µM | > 50 µM | > 50 µM
Cc1cc(O)cc2c1c(=O)c1ccccc1n2C |  | > 100 µM |  | > 100 µM |  | > 100 µM |  | > 100 µM |  | > 100 µM |  | > 100 µM |  | > 100 µM |  |  |  | > 100 µM |  | > 100 µM
Oc1ccc(Cl)cc1-c1cc(-c2ccc(F)cc2)n[nH]1 | 1.24 µM | > 100 µM | 2.57 µM | 12.9 µM | 1.19 µM | 4.35 µM | 1.93 µM | 5.55 µM | 0.416 µM | 22.5 µM | 1.23 µM | 8.44 µM | 3.04 µM | 10.8 µM | 2.98 µM | 10.9 µM | 2.08 µM | 4.85 µM |  | 
